Measurements taken from patent US7767118B2, “Nanoparticles from supercritical fluid antisolvent process using particle growth and agglomeration retardants” (Ferro Corporation, priority 2003, dated 2010).

How the values were obtained:
[1] = Scanning electron micrographs of the particles formed in the Example; assay type: physicochemical; conditions: particles precipitated from acetone into SC-CO2 at 40° C., 80 bar with alpha D glucose penta acetate as growth retardant; FIGS. 4A and 4B; substantially uniform in size, circular in shape
Excerpt: FIGS. 4A and 4B are scanning electron micrographs of the acetaminophen particles formed in the Example at two magnifications. […] Some minimal particle agglomeration or bridging is apparent.

[2] = Particle size distribution by laser light scattering; assay type: physicochemical; conditions: FIG. 5, standard deviation 1.87 microns, particles precipitated in SC-CO2 at 40° C., 80 bar with alpha D glucose penta acetate
Protocol: The mean diameter of the acetaminophen particles formed in the Example was measured using the conventional laser light scattering technique, which is known in the art. FIG. 5 is a graph showing the size distribution of particles. The mean volume diameter of the particles was 4.08 microns and the standard deviation was 1.87 microns.

SMILES: CC(=O)Nc1ccc(O)cc1 [acetaminophen]
- particle size (scanning electron micrographs) [1]: 1-2 microns
- mean volume diameter of the particles [2]: 4.08 microns
